Here are results for one compound from article PMC5068747, “Using C. elegans Forward and Reverse Genetics to Identify New Compounds with Anthelmintic Activity” (PLoS Neglected Tropical Diseases, 2016).

Assay [1] concerns S. cerevisiae yeast strain BY4743. Kind of assay: Yeast growth rate (OD600) dose titration. It counts as cell-based. Particulars: Saccharomyces cerevisiae; BY4743, YPD, growth rate reduced by 50%. How it is done: The S. cerevisiae yeast strain BY4743 (MATa/α his3Δ1/his3Δ1 leu2Δ0/leu2Δ0 LYS2/lys2Δ0 met15Δ0/MET15 ura3Δ0/ura3Δ0) was used for all yeast experiments and was grown using yeast extract peptone dextrose (YPD) media at pH 7 [52]. BY4743 was grown overnight to initial log phase and was then grown with the compound identified in the C. elegans assay. The growth rate was quantified by continuously monitoring the optical density of the liquid yeast growth at OD600. The compound was screened in a dose-titration in YPD as described. The IC50 was the concentration required to reduce the growth rate or Average G value by 50% compared to a vehicle control (2% DMSO).

The test system of assay [2] is C. elegans DA1316 (avr-14(ad1302); avr-15(vu227); glc-1(pk54), ivermectin resistant). The assay is described as follows: IC50 on ivermectin resistant C. elegans strain. It counts as in vivo, Caenorhabditis elegans. Particulars: Caenorhabditis elegans, 120 h; 5 days exposure, 2 L4 per well, three biological replicates.
For assay [3], the system named is C. elegans CB3474 (ben-1(e1880), benomyl resistant). Kind of assay: IC50 on benzimidazole resistant C. elegans strain. It counts as in vivo, Caenorhabditis elegans. The conditions noted are these: Caenorhabditis elegans, 120 h; 5 days exposure, 2 L4 per well, three biological replicates.
In assay [4] the test system is C. elegans VC3631 (mev-1 gk3613, D19 resistant). The assay is described as follows: IC50 on CID 2747322 resistant C. elegans strain VC3631. Type of assay: in vivo, Caenorhabditis elegans. Particulars: Caenorhabditis elegans, 120 h; 5 days exposure, 2 L4 per well, three biological replicates. How it is done: All compound libraries were stored in 96-well plates, with 80 drugs per plate (columns 1 and 12 left empty). A BioGrid BG600 pinning robot (Digilab / BioRobotics) was used for compound transfer. The robot uses a 96-pin tool (0.7 mm dia.) to transfer a nominal volume of 340 nL of compound. For retesting, compounds were hand pinned from the original library plates to assay plates using a single 0.7 mm dia. pin. The assay plates were 96-well clear flat-bottom microplates containing 2% χ1666 E.coli bacteria in 0.5X Liquid Nematode Growth Media (LNGM) plus cholesterol (Bacteria were mass-grown in rich media, and harvested by centrifugation to produce a thick paste of bacterial cells that was kept frozen at -20°C. Cells were resuspended at 2% W/V in 0.5X LNGM to produce liquid worm food). Using a COPAS Biosort (Union Biometrica), two L4 to young adult stage VC2010 worms were added to each well of the plate in a final volume of 45 μL. After five days of exposure to the compounds, the plates were scanned and the data analyzed. A five day time period was chosen to be able to observe effects over all stages of the life cycle and through at least one round of replication. The initial proof-of-principle primary screen was performed manually using a dissecting microscope. Phenotypes scored included decreased motility, reduced brood size, and/or death as described previously. For high throughput screening of the Chembridge and Maybridge compound libraries we used the program WormScan, which was adapted for screening 96-well flat-bottom LNGM plates. Using WormScan it was possible to screen four 96-well plates at a time. Plates were scanned twice, at a resolution of 1200 dots per inch, 16-bit grayscale, producing a jpeg image. The light intensity produced by the scanner was sufficient to cause negative phototaxis equivalent to a physical stimulus for mortality determination. The time required to scan four 96-well plates using an Epson Perfection V700 Photo Scanner was less than ten minutes. The time to screen a single plate was less than 1.2 minutes, with less than ten seconds between scans.
WormScan was used to screen for the same phenotypes as in the manual screen (reduced brood size, reduced behavior/motility response and increased mortality). Two sequential scans for each 96-well plate were aligned to a reference region of interest (ROI). Image analysis was based on a difference image score calculated for each ROI. The difference image score (WormScan score) was normalized using a “percent of control” method to derive a normalized WormScan score. […] Wild-type growth in 1% DMSO (Fig 1A) results in a normalized WormScan score of 100. Exposure to 50 nM ivermectin gives a score of 0 (Fig 1C), and complete absence of worms gives a score of 0 (Fig 1D). For the primary screen the WormScan score was calculated using custom macro scripts written for Fiji. For secondary screening and any subsequent studies the WormScan score was calculated using a standalone Java program (See supplemental). Probit regression of mortality was calculated using Mathematica 8.0.
A standard ethyl methanesulfonate (EMS) mutagenesis protocol was carried out using VC2010 in order to generate mutants resistant to CID 2747322 exposure. First larval stage (L1) F2 progeny of mutagenized P0s were exposed to CID 2747322 at 200 μM in liquid worm food in 24-well tissue culture plates for five days at room temperature, and two independently isolated resistant lines (VC3614 and VC3615) were identified. […]

In assay [5] the test system is C. elegans VC2010. The assay is described as follows: Manual inspection of growth, brood size, developmental stage and recovery of C. elegans in drug. It counts as in vivo, Caenorhabditis elegans. How it is done:
WormScan is a powerful tool to identify compounds with potential effects on the nematode, but it is still necessary to do manual inspection of wells with few animals to determine details of growth, behavior and fecundity. Wild-type worms grown in 90 μM CID 2747322 have brood sizes reduced by 97%. […] All current classes of anthelmintic have greater specificity towards certain life-stages. It is interesting that when removed from the drug L1s will recover and develop, and generally become fertile adults (See S3 Fig).
Supplementary file pntd.0005058.s002.tiff: S2 Fig Developmental stage of inhibition in C. elegans after CID 2747322 exposure. Ten VC2010 L1 stage C. elegans were sorted into a DMSO control well or 90 μM of CID 2747322. Nematodes were removed from the DMSO control or CID 2747322 after 24/48/72 hours and allowed to recover for 30 minutes on standard agar plates. (TIFF) Click here for additional data file.
Supplementary file pntd.0005058.s003.tiff: S3 Fig Development of C. elegans after removel from CID 2747322. Greater than 50 VC2010 L1 stage C. elegans were sorted into a DMSO control well or 90 μM of CID 2747322. Nematodes were removed from DMSO control or CID 2747322 after 2 days of exposure and left to recovery for 24/48/72 hours. (TIFF) Click here for additional data file.

pIC50: −log10 of the molar value.

As a reminder, the pIC50 is the IC50 on a negative log10 scale, so that one unit is a factor of ten. Read a high pIC50 as a low IC50. Take `COc1ccc(OCCNC(=O)c2ccccc2C(F)(F)F)cc1` [CID 2747322, N-[2-(4-methoxyphenoxy)ethyl]-2-(trifluoromethyl)benzamide]: the pIC50 in assay [1] is below 3.00; in assay [2], 4.80; in assay [3] it was 5.40; in assay [4], below 3.30. For the same compound, the “developmental stage of inhibition” value in assay [5] (90 μM, while maintained in drug) is “arrest at the first larval stage (L1)”. In assay [5] (L1s removed from the drug), the “outcome after exposure / removal from drug” value is recorded as “reversible inhibition”. In assay [5] (wild-type worms grown in 90 μM), this compound came in with a brood sizes reduced of 97%.
